What was measured:
[1] = tested on: STAT3; experiment: IHC staining of pSTAT3 in xenograft tumor samples; type: in vivo, mice; settings: IGROV1 CR xenograft tumor samples
Experimental: Cell viability was measured by SRB assay. […] Data were represented as mean ± SD (n = 3). (B) Colony formation assay in cells treated as indicated. […] (D) Growth curves of xenograft tumors are shown in (C). Data are represented as means ± SEM, n = 6 mice/group. **p < 0.01. […] (F) IGROV1 CR xenograft tumor growth curve by indicated treatments. Data are represented as means ± SD, n = 6 tumors/group. **p < 0.01. (G) Immunohistochemistry (IHC) staining against pSTAT3 antibodies of tumor samples from four groups of mice (magnification, 200x) (Upper).
Immun ohistochemical (IHC) sta i n in g an d scor ing we r e performed as prev iou sl y described (2).
The qu anti ficatio n of immunohistochemical sta in ing wa s scored blindly at lea st by two independent obser vers. Antibodies used in IHC as say are: SENP1 (ab108981, Abcam, Cambridge, UK), JA K 2 , p‐STAT 3 (ab76315; Abcam), Bc l‐xL (2764S; Cell Signaling Technology) (#3776, Cell Signaling Technologies, Danvers, MA, USA).
11. Cellular thermal shift assay and in vitro thermal shift assay
Cellular thermal shift assay was as previously described (5). Briefly, cells were pretreated with MG132 (10 µM, 1 hour) then incubated wi th DMSO, Mc, UA or UAMMC9 (2 µM) for 4 hours. […]

[2] = tested on: IGROV1 CR cells; experiment: Drug synergy screening: SRB proliferation assay with 2 μM cisplatin; type: cell-based
Experimental: (A) Collection of Momordin Ic (Mc) natural compound analogues. […] Cell proliferation was determined by the sulforhodamine B (SRB) assay. […] IGROV1 CR cells were incubated with Mc at indicated concentrations for 48 h and then harvested for Western blot for indicated proteins. […] IGROV1 CR cells were incubated with UA and then treated as in C. […] Intensity of SUMOylated JAK2 was measured by Quantity One software. […] Recombinant His‐JAK2 was SUMOylated by in vitro SUMOylation assay, and then SUMOylated JAK2 proteins were incubated with or without recombinant GST‐SENP1 together with Mc for 3 h. […] In vitro assay was performed as in (F). […]

C[C@H]1[C@H](C)CC[C@]2(C(=O)NCC(=O)N(C)CCO)CC[C@]3(C)C(=CC[C@@H]4[C@@]5(C)CC[C@H](O)C(C)(C)[C@@H]5CC[C@]43C)[C@H]12 [UAMMC9]
activation of STAT3 in vivo (pSTAT3 IHC) [1]: inhibit the activation of STAT3
IC50 of UA derivatives to inhibit resistant cells together with cisplatin (in words) [2]: lower IC50
